27 compounds from patent US9006442B2, “Cannabinoid receptor modulators” (Lupin Limited, priority 2011, dated 2015) can be followed below.

Read-outs that look alike come from different tables or passages of the source.

In one assay the target is hCB2 (Homo sapiens, UniProt P34972). In words: cAMP determination in functional hCB2-CHO stable cells (HTRF). Type of assay: cell-based. The method, then: In-Vitro Assay Method for Determination of cAMP in Functional hCB2—CHO Stable Cells:
Recombinant CHO-hCB2 cells (procured from Perkin Elmer Inc. USA) were propagated and maintained in Ham's F-12 complete medium containing 10% heat inactivated FBS (Sigma.UK) and 1× penstrep. For assay, 0.1×10^6 to 1.0×10^6 CHO-hCB2 cells were seeded in T-25 flask and grown to mid-log phase in culture media without antibiotics for 2-3 days. […] The test is performed in 96^1/2 area black well plates. For agonist testing, 20 μl cells/well were mixed with 20 μl of sample and 10 μl of forskolin (with final concentration of 10 μM) and incubated for 20 to 40 min at room temperature in incubator. The plate was then processed for the cAMP determination using cAMP Femto-2 HTRF kit (Cisbio, Germany) as per the manual.
The concentration of compound required to stimulate a half-maximal response (EC50) was determined using the GraphPad Prism software (version 5).

The next assay has as its target T1, human CB1 (Homo sapiens, UniProt P21554).
T1 construct: expressed in transfected cells
In words: cAMP determination in functional hCB1-HEK stable cells (HTRF). The assay is classed as cell-based. As for the experimental part:
In-Vitro Assay Method for Determination of cAMP in Functional hCB1—HEK Stable Cells:
U.S.A), 400 μg/ml of G418 and lx penstrep. For assay, 0.6-1.0×10^6 hCB1-HEK cells were seeded in T-25 flask and grown to mid-log phase in complete culture medium as mentioned above for 2-3 days. One day prior to assay, cell monolayer was washed once with PBS (pH.7.4) and then serum starved for overnight in DMEM medium containing 0.2% bovine serum albumin (devoid of antibiotics, FBS and penstrep). […] The test is performed in 96^1/2 area black well plates. For agonist testing, 20 μl cells/well were mixed with 20 μl of compound and 10 μl of forskolin (with final concentration of 10 μM) and incubated for 40 min at 25° C. incubator. The plates were then processed for cAMP determination using cAMP Femto-2 HTRF kit (Cisbio, Germany) as per the kit manual.
(In general: TR-FRET usually uses a lanthanide donor and a delayed reading to cut background.)

For a further assay, the system named is rats. Nature of the assay: FCA (Freund's Complete Adjuvant)-induced inflammatory hyperalgesia, paw withdrawal threshold, Dynamic plantar aesthesiometer. The assay is classed as in vivo. The conditions noted are these: mechanical hyperalgesia 3 days post-FCA. The method, then: FCA (Freund's Complete Adjuvant)—Induced Inflammatory Hyperalgesia:
Freund's Complete Adjuvant (FCA), containing heat killed Mycobacterium tuberculosis (2 mg/ml) in incomplete Freund's adjuvant, injected (50 μl) into the plantar region of the paw of rats induces an inflammatory pain. Mechanical hyperalgesia (3 days post-FCA) was assessed by measuring hind paw withdrawal thresholds with Dynamic planter aesthesiometer.

Setting [1] is: CHO-hCB2 cells, cAMP, forskolin 10 μM, agonist testing, read-out: EC50 Range.

hCB2, sequence (P34972 whole entry): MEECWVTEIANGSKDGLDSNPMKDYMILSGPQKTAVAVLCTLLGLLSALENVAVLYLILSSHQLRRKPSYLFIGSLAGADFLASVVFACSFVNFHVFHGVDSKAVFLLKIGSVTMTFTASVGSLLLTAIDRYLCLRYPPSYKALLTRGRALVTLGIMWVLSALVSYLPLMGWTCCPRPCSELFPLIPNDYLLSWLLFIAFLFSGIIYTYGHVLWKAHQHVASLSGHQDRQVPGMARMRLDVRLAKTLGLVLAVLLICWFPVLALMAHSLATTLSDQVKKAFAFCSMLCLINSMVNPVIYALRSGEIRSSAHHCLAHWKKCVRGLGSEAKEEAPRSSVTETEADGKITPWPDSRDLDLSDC
T1 sequence (P21554 whole entry): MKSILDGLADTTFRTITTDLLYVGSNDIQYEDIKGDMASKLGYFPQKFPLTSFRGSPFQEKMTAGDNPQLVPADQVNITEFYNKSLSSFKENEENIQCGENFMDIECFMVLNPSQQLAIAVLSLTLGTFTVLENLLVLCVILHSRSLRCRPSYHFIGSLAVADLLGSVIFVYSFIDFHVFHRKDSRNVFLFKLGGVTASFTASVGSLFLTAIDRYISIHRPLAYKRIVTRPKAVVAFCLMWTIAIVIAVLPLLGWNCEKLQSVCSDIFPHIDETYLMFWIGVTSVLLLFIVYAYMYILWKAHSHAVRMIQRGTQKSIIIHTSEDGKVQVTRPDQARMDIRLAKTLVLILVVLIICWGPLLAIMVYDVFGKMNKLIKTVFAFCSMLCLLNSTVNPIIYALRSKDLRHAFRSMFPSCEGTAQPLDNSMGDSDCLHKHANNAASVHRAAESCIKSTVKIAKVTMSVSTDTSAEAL

With `Cc1cccc2c(Nc3cccc(Cl)c3)ncc(C(=O)N3CCOCC3)c12` [Example-1, (1-((3-Chlorophenyl)amino)-5-methylisoquinolin-4-yl)(morpholino)methanone], the EC50 is under 0.01 µM at hCB2 and over 0.1 µM at human CB1.

`Cc1cccc2c(Nc3cccc(C(F)(F)F)c3)ncc(C(=O)N3CCOCC3)c12` [Example-4, (5-Methyl-1-((3-(trifluoromethyl)phenyl)amino)isoquinolin-4-yl)(morpholino)methanone] came in with a 50% effective concentration (EC50) at hCB2 of under 0.01 µM. Further, in the assay with rats (dose 10 mg/kg), the “% Improvement (MEAN ± S.E.M.) in Paw withdrawal Threshold, 1 h” value (“% Improvement … 1 h” for short) was 60.9 ± 12 %; the “% Improvement (MEAN ± S.E.M.) in Paw withdrawal Threshold, 2 h” value (from here on “% Improvement … 2 h”) is listed as 42.9 ± 8.7 %; the “% Improvement (MEAN ± S.E.M.) in Paw withdrawal Threshold, 4 h” value (from here on “% Improvement … 4 h”) is listed as 43.9 ± 17.4 %.

In the case of `Cc1cccc2c(Nc3cccc(C(F)F)c3)ncc(C(=O)N3CCOCC3)c12` [Example-13, (1-(((3-Difluoromethyl)phenyl)amino)-5-methylisoquinolin-4-yl)(morpholino)methanone], the results for the EC50 on hCB2 and on human CB1 were under 0.01 µM and under 0.1 µM, respectively.

Consider `Cc1cccc2c(Oc3ccc(F)cc3Cl)ncc(C(=O)N3CCOCC3)c12` [Example-56, (1-(2-Chloro-4-fluorophenoxy)-5-methylisoquinolin-4-yl)(morpholino)methanone], for which, at human CB1, the EC50 is over 0.1 µM.

In the case of `Cc1cccc2c(Nc3cccc(C(F)(F)F)c3)ccc(C(=O)N3CCOCC3)c12` [Example-134], the half-maximal effective concentration (EC50) on hCB2 was under 0.01 µM. Also, in the assay with rats (dose 10 mg/kg), the “% Improvement … 1 h” value is 6.8 ± 8.8%; the “% Improvement … 2 h” value is 25.8 ± 5.2%; the “% Improvement … 4 h” value was −1.6 ± 8.0%.

At hCB2, `Cc1cccc2c(Nc3cccc(C(F)(F)F)c3)ccc(C(=O)N3CCCCC3)c12` [Example-143] gave an EC50 of under 0.01 µM. Also, in the assay on rats (dose 10 mg/kg), the “% Improvement … 1 h” value is listed as 16.7 ± 15.0%; the “% Improvement … 2 h” value amounted to 25.1 ± 17.8%; the “% Improvement … 4 h” value is recorded as 18.3 ± 18.5%.

As for `Cc1c(Cl)cccc1Nc1ccc(C(=O)N2CCOCC2)c2c(C)cccc12` [Example-155, (4-((3-Chloro-2-methylphenyl)amino)-8-methylnaphthalen-1-yl)(morpholino)methanone], the EC50 at hCB2 is under 0.01 µM; at human CB1, under 0.1 µM.

Turning to `O=C(c1ccc(Nc2cccc(Cl)c2)c2ccccc12)N1CCOCC1` [Example-179, (4-((3-Chlorophenyl)amino)naphthalen-1-yl)(morpholino)methanone], the EC50 at hCB2 was under 0.01 µM; at human CB1, over 0.1 µM.

Turning to `O=C(c1ccc(Nc2cccc(F)c2)c2ccccc12)N1CCOCC1` [Example-183, (4-((3-Fluorophenyl)amino)naphthalen-1-yl)(morpholino)methanone], the EC50 on hCB2 was 0.01 to 1 µM; at human CB1, over 0.1 µM.

Consider `O=C(c1cnc(Nc2cccc(Cl)c2)c2cccc(Cl)c12)N1CCCCC1` [Example-218, (5-Chloro-1-((3-chlorophenyl)amino)isoquinolin-4-yl)(piperidin-1-yl)methanone], for which the EC50 on human CB1 was under 0.1 µM.

The compound `Cc1cccc2c(Nc3cc(F)cc(F)c3)ncc(CN3CCOCC3)c12` [Example-225, N-(3,5-difluorophenyI)-5-methyl-4-(morpholinomethyl)isoquinolin-1-amine] returned an EC50 on human CB1 of under 0.1 µM.

`Cc1cccc2c(Nc3cccc(Cl)c3)ncc(C(=O)N3CCC(F)(F)CC3)c12` [Example-241, (1-((3-Chlorophenyl)amino)-5-methylisoquinolin-4-yl)(4,4-difluoropiperidin-1-yl)methanone] came in with an EC50 at human CB1 of under 0.1 µM.

Consider `Cc1cccc2c(Nc3cccc(C(F)(F)F)c3F)ncc(C(=O)N(C)C)c12` [Example-257, 1-((2-Fluoro-3-(trifluoromethyl)phenyl)amino)-N,N,5-trimethyl isoquinolin-4-carboxamide], for which the EC50 on hCB2 (setting [1]) was under 0.01 µM. Besides, in the assay on rats (dose 30 mg/kg), the “% Improvement … 1 h” value is 44.4 ± 23.3% and the “% Improvement … 2 h” value worked out at 52.8 ± 19.1%.

Turning to `CCN(C)C(=O)c1cnc(Nc2cccc(Cl)c2C)c2cccc(Cl)c12` [compound 357, 5-Chloro-1-((3-chloro-2-methylphenyl)amino)-N-ethyl-N-methyl isoquinolin-4-carboxamide], the half-maximal effective concentration (EC50) on hCB2 is under 0.01 µM.

For the compound `CCN(C)C(=O)c1cnc(Nc2cccc(Cl)c2Cl)c2cccc(Cl)c12` [compound 363, 5-Chloro-1-((2,3-dichlorophenyl)amino)-N-ethyl-N-methyl isoquinolin-4-carboxamide], at hCB2, the EC50 is under 0.01 µM.

As for `CC(C)N(C)C(=O)c1cnc(Nc2cccc(F)c2C(F)(F)F)c2cccc(Cl)c12` [compound 381, 5-Chloro-1-((3-fluoro-2-(trifluoromethyl)phenyl)amino)-N-isopropyl-N-methylisoquinolin-4-carboxamide], the EC50 on hCB2 (setting [1]) fell in the range of 0.01 to 1 µM.

Compound `Cc1c(Cl)cccc1Nc1ncc(C(=O)N(C)C(C)C)c2c(Cl)cccc12` [compound 384, 5-Chloro-1-((3-chloro-2-methylphenyl)amino)-N-isopropyl-N-methylisoquinolin-4-carboxamide] returned an EC50 on hCB2 of 0.01 to 1 µM.

With `COC(=O)c1cccc(Nc2ccc(C(=O)N3CCCCC3)c3c(C)cccc23)c1` [compound 407, Methyl 3-((5-methyl-4-(piperidin-1-carbonyl)naphthalen-1-yl)amino) benzoate], the EC50 on hCB2 (setting [1]) is under 0.01 µM.

As for `COC(=O)c1cccc(Nc2ccc(C(=O)N3CCOCC3)c3c(C)cccc23)c1` [compound 408, Methyl 3-((5-methyl-4-(morpholin-4-carbonyl)naphthalen-1-yl)amino) benzoate], the EC50 on hCB2 (setting [1]) was under 0.01 µM.

Regarding `COC(=O)c1cccc(Nc2ccc(C(=O)N3CCCCC3)c3c(C)cccc23)c1C` [compound 409, Methyl 2-methyl-3-((5-methyl-4-(piperidin-1-carbonyl)naphthalen-1-yl)amino)benzoate], the EC50 at hCB2 (setting [1]) is under 0.01 µM.

Consider `COC(=O)c1cccc(Nc2ccc(C(=O)N3CCOCC3)c3c(C)cccc23)c1C` [compound 410, Methyl 2-methyl-3-((5-methyl-4-(morpholin-4-carbonyl)naphthalen-1-yl)amino)benzoate], for which the EC50 at hCB2 (setting [1]) is under 0.01 µM.

Regarding `CCN(CC)C(=O)c1ccc(Nc2cccc(C(=O)OC)c2C)c2cccc(C)c12` [compound 411, Methyl 2-methyl-3-((5-methyl-4-(diethylcarbamoyl)naphthalen-1-yl)amino)benzoate], the concentration for a half-maximal effect (EC50) at hCB2 (setting [1]) was under 0.01 µM.

With `CCN(C)C(=O)c1ccc(Nc2cccc(C(F)(F)F)c2F)c2cccc(C)c12` [compound 413, N-Ethyl-4-((2-fluoro-3-(trifluoromethyl)phenyl)amino)-N,8-dimethyl-1-naphthamide], the EC50 on hCB2 was under 0.01 µM.

For `Cc1c(Nc2ccc(C(=O)N(C)C)c3c(C)cccc23)cccc1C(F)(F)F` [compound 427, N,N,8-Trimethyl-4-((2-methyl-3-(trifluoromethyl)phenyl)amino)-1-naphthamide], on hCB2 (setting [1]), the EC50 was under 0.01 µM.

On to `CCN(C)C(=O)c1ccc(Nc2cccc(C(F)(F)F)c2C)c2cccc(C)c12` [compound 452, N-Ethyl-N,8-dimethyl-4-((2-methyl-3-(trifluoromethyl)phenyl)amino)-1-naphthamide], for which the EC50 on hCB2 (setting [1]) is under 0.01 µM.

On to `CCN(C)C(=O)c1ccc(Nc2cccc(C)c2C)c2cccc(C)c12` [compound 453, 4-((2,3-Dimethylphenyl)amino)-N-ethyl-N,8-dimethyl-1-naphthamide], for which the EC50 at hCB2 (setting [1]) is under 0.01 µM.

With `CCN(C)C(=O)c1ccc(Nc2cccc(Cl)c2C)c2cccc(C)c12` [compound 456, 4-((3-Chloro-2-methylphenyl)amino)-N-ethyl-N,8-dimethyl-1-naphthamide], the 50% effective concentration (EC50) on hCB2 (setting [1]) was under 0.01 µM.

What is called EC50 is the concentration giving half of the maximal effect.
